US8377972B2, “Use of quaternary pyridinium compounds for vasoprotection and/or hepatoprotection” (Trigendo Sp. zo.o., priority 2007, dated 2013)
“Also recorded” adds a separate entry of the source. Read-outs that look alike come from different tables or passages of the source.

Tests used:
[1] = Binding of pyridinium cations to sepharose-immobilized heparin (spectrophotometric); conditions: immobilized heparin 25 mg/mL, tested compounds 20÷100 μM in water, 5 minutes, room temperature
From the text: The presence of the heparin in the pyridinium salt solution changes the absorption spectrum of the salt through the non-specific electrostatic interactions of pyridinium cations with negatively charged heparin moieties. The use of water-insoluble sepharose-immobilized heparin which binds some fraction of pyridinium cations causes the decrease of the concentration of the salt in the solution.
At the high excess of the immobilized heparin in relation to the pyridinium salt concentration the degree of binding depends only on the heparin concentration. It allows, by using the experimental methodology described below, to estimate the degree of binding of different pyridinium compounds to heparin, provided that analogical concentrations of pyridinium salts and constant concentration of sepharose-immobilized heparin are used.
To estimate a degree of binding of the pyridinium_compounds with heparin spectrophotometric method based on the absorption measurements of aqueous solutions of tested compounds at 20÷100 μM before and after a contact with heparin was used.
The suspensions of immobilized heparin with the tested compounds were then placed into Eppendorf microtubes and centrifuged at 13 000 rpm for 4 minutes using FORCE 1418 microcentrifuge from Labnet Int. (Edison, N.J., USA). The UV-Vis absorption spectra of the resulting clear supernatants was measured with Perkin Elmer Lambda 40 spectrophotometer. All measurements were performed at room temperature. The degree of binding was estimated based on comparison of integrated area under the absorption curve for the solutions incubated and non-contacted with heparin.

platelet-rich thrombus [2] = conditions: Table 2; known anti-thrombotic activity, documented in WO 2005/067927; cited from earlier work
Balb/c mice = assay: Hepatoprotective effect in mice model of acute liver injury (Concanavalin A-induced hepatitis); assay type: in vivo; conditions: 100 mg/kg per os for 7 days, ConA 20 mg/kg i.v., 8 hours later
Method: Balb/c mice at the age of 2 months were treated for 7 days with 1,4-dimethylpyridinium chloride (100 mg/kg, per os) or were left untreated and then mice were injected with Concanavalin A (ConA) inducing T cell-mediated hepatitis. ConA was injected intravenously at a dose of 20 mg/kg and 8 hours later liver injury was assessed on the basis of transaminase (AST) level in plasma.

platelet-rich thrombus [3] = assay: Thrombolytic response in vivo in rats with extracorporeal circulation (thrombus on collagen strip); set-up: species or system Wistar rats; conditions: for Thrombolytic response: Table 3, trigonelline and its thermal decomposition products; for thrombolytic response (in words) / thrombolytic response, maxima: 30 mg/kg intravenous; for thrombolytic response (in words): Wistar rats
Method: Thrombolytic activity was assayed by the method developed originally by Gryglewski et al., (Gryglewski R J, Korbut R, Ocetkiewicz A, Stachura J. In vivo method for quantitation for anti-platelet potency of drugs. Naunyn Schmiedebergs Arch Pharmacol 1978; 302:25-30; Gryglewski R J 1978, Gryglewski et al., 2001). The scheme of the method is shown on FIG. 1.
Wistar rats (body weight of 300-350 g) were anaesthetised (thiopental 95 mg/kg i.p) and heparinised (800 U/kg i.v.). Caniules were placed in arteries and connected from the left carotid artery vein with a pressure sensor and from the right carotid artery through heated (37° C.) line to peristaltic pomp. The blood from carotid artery was pumped to the extracorporeal circulation were it superfused (1.5 ml/min) a 3 cm collagen strip excised from Achilles tendon hung on a spring-balanced auxotonic lever of a Harvard 386 isotonic transducer and the weight of the collagen strip was continuously registered. After superfusion the blood was returned to the circulation of an animal. During superfusion a thrombus made of platelets aggregates stuck in the fibrin network (microscopically visualized by the Weigert method) was formed on the surface of the collagen strip. A pressure and the thrombus weight were continuously recorded.
Then the trigonelline thermolysate, 1-methylpyridine or 1,4-dimethylpyridine were injected intravenously into the femoral vein (30 mg·kg^−1).

[4] = tested on: Zucker fatty rats (fa/fa); assay: Antidiabetic effects in the rat model of metabolic syndrome (glucose injection); assay type: in vivo; conditions: 7 days treatment (thermolysate 100 mg/kg, metformin 500 mg/kg), glucose 2 g/kg i.p., 0-90 minutes
Method: After 7 days glucose was injected at 2 g/kg (i.p.) and postprandial hyperglycemia was analyzed in the following periods: 0, 15, 30, 60 and 90 minutes after the injection of glucose.

Row | Structure (SMILES) | Degree of binding [1] | Thrombolytic response (platelet-rich thrombus [2]) | thrombolytic response (in words) (platelet-rich thrombus [3]) | also measured
1 | Cn1cc(C(N)=O)ccc1=O [2-PYR, 1-methyl-2-pyridone-5-carboxamide] | >5% | no | – | –
2 | Cc1cc[n+](C)cc1C(=O)[O-] [4MeTryg, 4-methyltrigonelline] | >5% | – | – | –
3 | Cc1cccc[n+]1C [12-DMP^+, 1,2-dimethylpyridine] | >15% | – | – | –
4 | Cc1cc[n+](C)cc1 [14-DMP^+, 1,4-dimethylpyridine] | >20% | – | – | transaminase (AST) level in plasma after ConA injection (Balb/c mice): prevented a rise in AST levels; Thrombolytic response (platelet-rich thrombus [3]): yes
5 | CC(=O)c1ccc[n+](C)c1 [MAP^+, 1-methyl-3-acetyl-pyridine] | >25% | yes | – | –
6 | C[n+]1cccc(C(=O)NCO)c1 [MNAF^+, 1-methyl-N′-(hydroxy-methyl) nicotinamide] | >35% | yes | – | –
7 | C[n+]1cccc(C(N)=O)c1 [MNA^+, 1-methyl-nicotinamide] | >45% | yes | – | –
8 | C[n+]1ccccc1 [MP^+, 1-methylpyridine] | >25% | – | moderate thrombolytic response | Thrombolytic response (platelet-rich thrombus [3]): yes
9 | NC(=O)c1cccnc1 [NA, nicotinamide] | ≈0% | no | lack of significant thrombolytic response | thrombolytic response, maxima (platelet-rich thrombus [3]): 9±0.6%
10 | O=C(O)c1cccnc1 [NC, nicotinic acid] | >40% | no | lack of significant thrombolytic response | thrombolytic response, maxima (platelet-rich thrombus [3]): 5±0.9%
11 | NC(=O)c1ccc[n+]([O-])c1 [N—OX, nicotinamide N-oxide] | >10% | – | – | –
12 | C[n+]1cccc(C(=O)[O-])c1 [Tryg, trigonelline] | ≈0% | – | lack of significant thrombolytic response; also recorded: did not induce significant thrombolytic response | Thrombolytic response (platelet-rich thrombus [3]): no
13 | CN(C)C(=N)N=C(N)N [metformin] | – | – | – | postprandial hyperglycemia induced by glucose injection [4]: decreased postprandial hyperglycemia
